Measured values as given in patent US20220323383A1, “SMALL-MOLECULAR ADJUVANTS AND IMPLEMENTATIONS THEREOF” (JAWAHARLAL NEHRU CENTRE FOR ADVANCED SCIENTIFIC RESEARCH, priority 2019, published 2022).

Experiments:
Type in all cases: cell-based
[1] = test system: A. baumannii R674; assay: Individual antibacterial activity (MIC) of adjuvants; conditions: Acinetobacter baumannii, R674, read-out: MIC against clinical isolates of bacteria
Experimental: (§1) The combination efficacy with antibiotics from different classes and individual antibacterial activity of the synthesized adjuvants was evaluated against the above mentioned MDR and NDM-1 strains of Gram-negative bacteria. All the bacteria were grown in peptone. The bacterial samples were freeze dried and stored at −80° C. 3 μl of these stocks were added to 3 mL of peptone and the culture was grown for 6 h at 37° C. prior to the experiments.
(§2) All synthesized compounds were assayed for their antibacterial activity in combination with antibiotics in a modified chequerboard micro-dilution broth format. Stock solutions were made by serially diluting the compounds using autoclaved millipore water. The bacterial freeze dried stock samples were stored at −80° C. About 3 μL of these stocks were added to about 3 mL of the respective broth and the culture was grown for about 6 h at about 37° C. with prior to the experiments. This 6 h grown culture gives about 10^8 cfu/mL in case of A. baumannii R674, P. aeruginosa R590, E. coli R3336 and K. pneumoniae R3934 which were determined by spread plating method. This 6 h grown culture was diluted to give effective cell concentration of 10^5 cfu/mL, and then used for the chequerboard assay. Adjuvants and antibiotics were serially diluted in two-fold, in sterile millipore water. 25 μL of these serial dilutions of the antibiotics and 25 μL of compounds were added to the wells of 96 well plate followed by the addition of about 150 μL of bacterial solution (˜10^5 cfu/mL). The plates were then incubated at about 37° C., 150 rpm in the incubator and O.D at 600 nm was recorded at 24 h using TECAN (Infinite series, M200 pro) Plate Reader. The wells with similar OD as the media control contained the required concentration of the antibiotic and adjuvant for antibacterial efficacy. The potentiation ability of the adjuvants was determined by calculating the potentiation factor and the Fractional Inhibitory concentration (FIC) index. Fractional Inhibitory Concentration (FIC) is expressed as, FIC=[X]/MICX, where [X] is the lowest inhibitory concentration of antibiotic in the presence of the adjuvant. Whereas FIC index is expressed as, FICI=FICantibiotic+FICadjuvant. The values of FIC index give an insight about the nature of the combination. Potentiation factor which means fold-reduction in the MIC of the antibiotic, when used in combination with the adjuvant was also determined. Potentiation factor=[Minimum inhibitory concentration (MIC) of antibiotic in absence of adjuvant]/[MIC of antibiotic in presence of adjuvant]. […] The combination efficacies of adjuvants with various antibiotics are furnished in Table 1. It should be noted that various other resistant strains of bacteria (Gram-positive and Gram-negative) can be tested with a number of other antibiotics to check the potentiation capacity of the adjuvants.

[2] = test system: E. coli R3336; assay: as above; conditions: Escherichia coli, R3336, read-out: MIC against clinical isolates of bacteria
Experimental: as §1, §2

[3] = test system: P. aeruginosa R590; assay: as above; conditions: Pseudomonas aeruginosa, R590, read-out: MIC against clinical isolates of bacteria
Experimental: as §1, §2

[4] = test system: K. pneumoniae R3934; assay: as above; conditions: Klebsiella pneumoniae, R3934, read-out: MIC against clinical isolates of bacteria
Experimental: as §1, §2

[5] = test system: A. baumannii R674; assay: Chequerboard combination efficacy of adjuvant with antibiotics
Experimental: (§3) All the solvents were of reagent grade, which were distilled and dried before its use. All the reagents were purchased from Sigma-Aldrich, Alfa-Aesar, S.D. Fine, Avra and Spectrochem, and were used without further purification. Analytical thin layer chromatography (TLC) was performed on E. Merck TLC plates pre-coated with silica gel 60 F254 and visualization was carried out using UV light and Iodine. Column chromatography was performed on silica gel (60-120 mesh) using different ratio of chloroform and methanol solvent system. Nuclear magnetic resonance spectra were recorded on Bruker (AV-400) 400 MHz spectrometer in deuterated solvents. Mass spectra were obtained using 6538-UHD Accurate mass Q-TOF LC-MS instrument. For optical density measurement during bacteriology experiments, Tecan Infinite Pro series M200 Microplate Reader was used. Bacterial strains, A. baumannii (R674), P. aeruginosa (R590), E. coli (R3336) and K. pneumoniae (R3934) were used for the studies.
as §1, §2

[6] = test system: E. coli R3336; assay: as above
Experimental: as §3, §1, §2

[7] = test system: P. aeruginosa R590; assay: as above; conditions: P. aeruginosa R590
Experimental: as §3, §1, §2

[8] = test system: K. pneumoniae R3934; assay: as above
Experimental: as §3, §1, §2

**Q.** What does the source list for `NCCCC[C@H](N)C(=O)NCCCCCCN(CCCCCCNC(=O)[C@@H](N)CCCCN)C(=O)Cc1cccc2ccccc12` [Compound 13, N,N-bis-[(6-(^LLys)amido)hexyl] naphthyl ethanamide tetrakistrifluoroacetate]?
**A.** MIC [1]: 512 µg/mL; MIC [2]: > 512 µg/mL; MIC [3]: 512 µg/mL; MIC [4]: > 512 µg/mL; MIC of antibiotic in presence of adjuvant ([5]; antibiotic Ampicillin): No potentiation; FICI ([5]; antibiotic Ciprofloxacin): 0.3125; MIC of antibiotic in presence of adjuvant ([5]; antibiotic Ciprofloxacin): 64 µg/mL; Potentiation factor ([5]; antibiotic Ciprofloxacin): 4; FICI ([5]; antibiotic Erythromycin): 0.156; MIC of antibiotic in presence of adjuvant ([5]; antibiotic Erythromycin): 16 µg/mL; Potentiation factor ([5]; antibiotic Erythromycin): 32; FICI ([5]; antibiotic Fusidic acid): <0.023; MIC of antibiotic in presence of adjuvant ([5]; antibiotic Fusidic acid): <0.5 µg/mL; Potentiation factor ([5]; antibiotic Fusidic acid): >128; FICI ([5]; antibiotic Linezolid): 0.1875; MIC of antibiotic in presence of adjuvant ([5]; antibiotic Linezolid): 32 µg/mL; Potentiation factor ([5]; antibiotic Linezolid): 8; FICI ([5]; antibiotic Minocycline): 0.1875; MIC of antibiotic in presence of adjuvant ([5]; antibiotic Minocycline): 0.5 µg/mL; Potentiation factor ([5]; antibiotic Minocycline): 16; FICI ([5]; antibiotic Rifampicin): 0.023; MIC of antibiotic in presence of adjuvant ([5]; antibiotic Rifampicin): 1 µg/mL; Potentiation factor ([5]; antibiotic Rifampicin): 64; MIC of antibiotic in presence of adjuvant ([5]; antibiotic Streptomycin): No potentiation; FICI ([5]; antibiotic Tetracycline): 0.375; MIC of antibiotic in presence of adjuvant ([5]; antibiotic Tetracycline): 16 µg/mL; Potentiation factor ([5]; antibiotic Tetracycline): 8; FICI ([5]; antibiotic Vancomycin): 0.5625; MIC of antibiotic in presence of adjuvant ([5]; antibiotic Vancomycin): 32 µg/mL; Potentiation factor ([5]; antibiotic Vancomycin): 2; FICI ([6]; antibiotic Fusidic acid): <0.125; MIC of antibiotic in presence of adjuvant ([6]; antibiotic Fusidic acid): 32 µg/mL; Potentiation factor ([6]; antibiotic Fusidic acid): >16; MIC of antibiotic in presence of adjuvant ([6]; antibiotic Linezolid): No potentiation; FICI ([6]; antibiotic Minocycline): <0.031; MIC of antibiotic in presence of adjuvant ([6]; antibiotic Minocycline): 0.5 µg/mL; Potentiation factor ([6]; antibiotic Minocycline): 64; FICI ([6]; antibiotic Rifampicin): <0.031; MIC of antibiotic in presence of adjuvant ([6]; antibiotic Rifampicin): 8 µg/mL; Potentiation factor ([6]; antibiotic Rifampicin): 64; FICI ([7]; antibiotic Chloramphenicol): 0.375; MIC of antibiotic in presence of adjuvant ([7]; antibiotic Chloramphenicol): 32 µg/mL; Potentiation factor ([7]; antibiotic Chloramphenicol): 4; MIC of antibiotic in presence of adjuvant ([7]; antibiotic Colistin): No potentiation; MIC of antibiotic in presence of adjuvant ([7]; antibiotic Daptomycin): No potentiation; FICI ([7]; antibiotic Fusidic acid): 0.094; MIC of antibiotic in presence of adjuvant ([7]; antibiotic Fusidic acid): 2 µg/mL; Potentiation factor ([7]; antibiotic Fusidic acid): 32; FICI ([7]; antibiotic Linezolid): 0.1875; MIC of antibiotic in presence of adjuvant ([7]; antibiotic Linezolid): 32 µg/mL; Potentiation factor ([7]; antibiotic Linezolid): 8; FICI ([7]; antibiotic Minocycline): 0.1875; MIC of antibiotic in presence of adjuvant ([7]; antibiotic Minocycline): 0.5 µg/mL; Potentiation factor ([7]; antibiotic Minocycline): 16; FICI ([7]; antibiotic Rifampicin): <0.019; MIC of antibiotic in presence of adjuvant ([7]; antibiotic Rifampicin): <0.5 µg/mL; Potentiation factor ([7]; antibiotic Rifampicin): >256; FICI ([7]; antibiotic Tetracycline): 0.266; MIC of antibiotic in presence of adjuvant ([7]; antibiotic Tetracycline): 4 µg/mL; Potentiation factor ([7]; antibiotic Tetracycline): 64; FICI ([8]; antibiotic Fusidic acid): <0.133; MIC of antibiotic in presence of adjuvant ([8]; antibiotic Fusidic acid): 4 µg/mL; Potentiation factor ([8]; antibiotic Fusidic acid): 128; FICI ([8]; antibiotic Linezolid): <0.25; MIC of antibiotic in presence of adjuvant ([8]; antibiotic Linezolid): 64 µg/mL; Potentiation factor ([8]; antibiotic Linezolid): >8; FICI ([8]; antibiotic Minocycline): <0.07; MIC of antibiotic in presence of adjuvant ([8]; antibiotic Minocycline): 0.5 µg/mL; Potentiation factor ([8]; antibiotic Minocycline): 128; FICI ([8]; antibiotic Rifampicin): <0.064; MIC of antibiotic in presence of adjuvant ([8]; antibiotic Rifampicin): 1 µg/mL; Potentiation factor ([8]; antibiotic Rifampicin): 512
